Consider one molecule from US20240091254A1, “WNT AGONISTS FOR PREVENTION OF CANCER” (ACADEMISH MEDISCH CENTRUM, priority 2021, published 2024).

Molecules are shown by their SMILES.

One assay deals with human colon organoids. Briefly: Human colon organoids incubated with FAP CM. It is filed as cell-based. As to conditions: FAP CM with or without LiCl.
Assay [1] concerns Apc-/- mutant clones in crypts. Briefly: Short term clonal dynamics of Notumpos/Apc-/- clones in Lgr5-CreErt2;Apcfl/fl mice. It is filed as in vivo, mouse. How it is done: Lgr5-EGFP-IRES-Cre^ERT2 Villin-Cre^ERT2, Rosa26mTmG, Apc^fl/fl and Kras^G12D mice have been described earlier^30-34. All in vivo experiments were approved by the animal experimentation committee at the Amsterdam UMC—location Academic Medical Center in Amsterdam under nationally registered licence number AVD1180020172125 and performed according to national guidelines. Mice were housed in a 12 hour light/12 hour dark cycle, with temperatures between 20-24° C. and 40-70% humidity. For short term assays, both male and female mice were used. For long term assays, only females were used to prevent the risk of preliminary dropout due to fighting male mice. All mice were between 6-12 weeks old at the start of the experiments. For all mouse experiments, sufficient sample sizes were determined based on previous studies with a similar study design^3,35. Experimental animals were randomly assigned to the control or lithium treated groups, clone sizes and adenoma counts were scored blindly. In vivo low-dose recombination was induced by intraperitoneal injection (i.p.) of 0.3 mg (for Rosa26^mTmG and Kras^G12D mice) or 2 mg (for Ape^−/− mice) tamoxifen (Sigma) dissolved in sunflower oil. […] Treatment with LiCl was initiated 7 days before recombination by i.p. injection of tamoxifen and was administered until the day they were sacrificed. For short term experiments to study stem cell dynamics, mice were sacrificed at day 4, 7, 10, 14, 21 days after intra peritoneal (i.p.) injection and intestines were removed and further processed for analyses. For long term adenoma formation experiments, mice were injected with 2 mg tamoxifen and sacrificed 60 days after i.p. injection. Mouse discomfort during tumour formation assays was closely monitored, and endpoints were determined as <15% weight loss within 2 days or a mouse grimace scale (MGS) score<3. […] After 60 days, intestines were removed and polyps were counted macroscopically.
After the mice were sacrificed, intestines were removed fully and washed thoroughly with ice-cold PBS. The intestines were cut into pieces of 5 mm, opened longitudinally and fixed overnight in 4% paraformaldehyde (PFA) solution. To preserve tissue integrity the intestines were kept in 30% sucrose solution for another night before freezing. Crypt bottoms were sliced with a thickness of […] at a Cryostar™ NX70 cryostat and placed on glass slips. Fluorescent lineage tracing labels were visualized with a SP8X Confocal (Leica), slides were counterstained with Hoechst-33342. RNA-ISH stained coupes were counterstained with hematoxylin and scanned using the IntelliSite Ultra Fast 1.6 slide scanner (Philips). For all crypt analyses, clone sizes were quantified as proportions of the crypt circumference (in eights, 1:8-8:8).
RNA in situ hybridisation (RNAscope) and Basescope was performed on fixed frozen intestinal tissue (mouse) and paraffine embedded tissue (mouse and human) according to manufacturer's protocol (ACD RNAscope® 2.5 HD—Brown and Red, and ACD BaseScope™ v2—Red). RNAscope was used for detection of mouse Notum (#428981), Wif1 (#412361), Dkk2 (#404841) or positive control Ppib (#313911) and human NOTUM (#430311) and positive control PPIB (#313901). BaseScope probe ApcE14-E16 (#703011) was used to detect recombined Apc alleles. RNAscope duplex was performed using the RNAscope Duplex Reagent Kit (#322430, ACD) with additional Lgr5 probe (#312171-C2). After RNAscope procedures tissues were counterstained for Hematoxylin or Hoechst-33342. RNAscope was quantified using QuPath software v0.2.2^39.
The clone data was modelled using the models and methods developed in Vermeulen et al.^3. An R package implementing the model was used and is available at https://qithub.com/MorrisseyLab/CryptDriftR.

A further assay concerns WT organoids. Briefly: Murine WT intestinal organoids incubated with conditioned medium or recombinant Wnt antagonists (expansion, clonogenicity). It is filed as cell-based, mouse. To be noted: WT organoids, Apc-/- CM, 5 mM LiCl. How it is done: Murine intestinal crypts were isolated from Lgr5-EGFP-IRES-Cre^ERT2, Lgr5-EGFP-IRES-Cre^ERT2;Ape/or Villin-Cre^ERT2;Apc^fl/fl mice as described by Sato et al.^35. In short, intestines were removed from the mouse and washed thoroughly with ice-cold PBS. Next, the intestine was opened longitudinally and the villi were gently scraped off by a glass cover slide. The intestine was cut into pieces of 5×5 mm and incubated in 2 mM EDTA solution for 30 min. at 4° C. After removal of the EDTA, the crypts were resuspended in ice-cold 1% FCS in PBS by vigorously shaking the tube and passing the supernatant through a 70 µm strainer. Isolated crypts were resuspended in Matrigel® (Corning) and seeded in pre-heated 24-well plates, supplemented with basal organoid medium consisting of advanced DMEM/F12 medium (Gibco) containing 100× N2 and 50× B27 supplements, 100× Glutamax, 5 mM HEPES, 1 mM N-acetyl-L-cysteine (Sigma), and 100× antibiotic/antimycotic (all Gibco). The basal organoid medium was freshly supplemented with the following growth factors: mouse EGF 50 ng/ml (TEBU-BIO), R-spondin (conditioned medium), Noggin (conditioned medium). The first two days after crypt isolation CHIR99021 (Axon Medchem) and ROCK inhibitor (Sigma) was added to the medium. Ctnnb1^S organoids expressing a constitutive active variant of β-catenin were generated as described by Adam et al.^36. For in vitro recombination of loxP flanked alleles, 1 μM 40H-Tamoxifen (Sigma) was added to the medium. Recombination of the Apc gene was validated by digital droplet PCR (Bio-Rad) using EvaGreen® Supermix (Bio-Rad). Lgr5-EGFP-IRES-Cre^ERT2 organoids, referred to as wild type (WT) organoids, were stably transduced with a red fluorescent mCherry construct (LeGO-C2, Addgene #27399). The in vitro recombined Lgr5-EGFP-IRES-Cre^ERT2;Apc^fl/fl, referred to as Apc^−/−, were stably transduced with a green fluorescent Venus construct (LeGO-V2, Addgene #27340). During competition assays, organoids were plated in equal numbers in 24-well plates and full wells were scanned over time by the EVOS FL Cell Imaging System (Thermo Scientific). Conditioned medium (CM) was taken from 2-3 day old WT or Apc^−/− organoid cultures and freshly supplemented with growth factors R-spondin, Noggin and mEGF. During the competition assays the medium (normal and conditioned) was replaced every other day to minimize effects of medium depletion. To assess the effect of medium depletion, CM was 10× concentrated using 10 kDa Amicon® centrifugal filters (Millipore) and added to fresh ENR medium as 1:10. […] Recombinant proteins NOTUM (2 μg/mL, R&D, 9150-NO-050), WIF1 (5 μg/mL, R&D, 135-WF-050) and DKK2 (1 μg/mL, R&D, 2435-DKB-010) were freshly added to the culture medium, medium was refreshed every other day.

Take `[Cl-].[Li+]` [LiCl, lithium chloride]: the “Stemness (LGR5 expression) and clonogenicity of human colon organoids incubated with FAP CM” value with human colon organoids is “rescued loss of sternness and clonogenicity”. Also, the “Reduction of Lgr5 expression by Notumpos/Apc-/- clones within the same and neighbouring crypts” value in assay [1] (Lgr5-CreErt2;Apcfl/fl mice, oral LiCl) was “prevented this”. For the same molecule, the “Number of Notumpos clones (crypts)” value in assay [1] (LiCl treated mice, day 21) is “reduced number of Notum^pos clones”. In addition, the “Probability of clonal fixation in a crypt (Pfix)” value in assay [1] (LiCl treated mice, model) was “markedly reduced probability of clonal fixation”. In assay [1] (LiCl treated mice, adapted drift model, 4.7 untreated with Apc-/- clones, 5.6 fully WT crypts), the “Number of functional ISCs (WT stem cells, NWT) in crypts” value is reported as 6.5 (95% Cl: 6.2-6.8). The “Probability of replacement (PR) of WT ISCs by Apc-/- ISCs” value in assay [1] (LiCl treated mice, inferred by stem cell drift model, untreated 0.65, neutral 0.5) is on record as 0.34 (95% Cl: 0.31-0.37). Moreover, the “Rate of Notumpos/Apc-/- clone expansion and fixation” value in assay [1] (LiCl versus non-treated mice, up to day 21) is “significantly reduced”. For the same molecule, in the assay with WT organoids, the “Resistance to Apc-/- CM induced reduction in proliferation and clonogenicity” value is “resistant to the Apc^−/− CM induced reduction in proliferation and clonogenicity”.
